{"source": "patent US20170150719A1", "about": "“FUNGICIDAL PYRAZOLES AND THEIR MIXTURES” (E I DU PONT DE NEMOURS AND COMPANY, priority 2010, published 2017)", "data": [{"system": "Septoria tritici", "assay": "Test F: wheat leaf blotch, preventive spray on wheat seedlings, visual disease rating", "format": "in vivo", "details": "100 = 100% disease control, 0 = no disease control relative to the controls", "excerpt": "(§1) A hyphen (-) indicates no test results.", "units": {"Test F rating (disease control)": "%"}, "values": [{"compound": "Cc1nn(C)c(Nc2ccc(C#N)cc2Cl)c1-c1ccc(F)cc1Cl", "note": "[compound 44]", "Test F rating (disease control)": 99}, {"compound": "Cc1nn(C)c(Nc2ccc(F)cc2F)c1-c1c(F)cccc1F", "note": "[compound 49]", "Test F rating (disease control)": 98}, {"compound": "Cc1nn(C)c(Nc2ccc(Cl)cc2Cl)c1-c1c(F)cccc1F", "note": "[compound 50]", "Test F rating (disease control)": 95}, {"compound": "COc1ccc(Nc2c(-c3c(F)cccc3F)c(C)nn2C)c(F)c1", "note": "[compound 51]", "Test F rating (disease control)": 98}, {"compound": "Cc1nn(C)c(Nc2ccc(F)cc2F)c1-c1ccccc1F", "note": "[compound 52]", "Test F rating (disease control)": 100}, {"compound": "Cc1nn(C)c(Nc2c(F)cc(F)cc2F)c1-c1ccccc1F", "note": "[compound 53]", "Test F rating (disease control)": 100}, {"compound": "COc1cc(F)c(Nc2c(-c3ccccc3F)c(C)nn2C)c(F)c1", "note": "[compound 54]", "Test F rating (disease control)": 99}, {"compound": "COc1cc(F)c(Nc2c(-c3c(F)cccc3Cl)c(C)nn2C)c(F)c1", "note": "[compound 55]", "Test F rating (disease control)": 100}, {"compound": "Cc1nn(C)c(Nc2c(F)cc(F)cc2F)c1-c1c(F)cccc1Cl", "note": "[compound 56]", "Test F rating (disease control)": 100}, {"compound": "Cc1nn(C)c(Nc2c(F)cc(C#N)cc2F)c1-c1c(F)cccc1Cl", "note": "[compound 57]", "Test F rating (disease control)": 100}]}, {"system": "Puccinia recondita f. sp. tritici", "assay": "Test G: wheat leaf rust, spray after inoculation (curative) on wheat seedlings, visual disease rating", "format": "in vivo", "details": "sprayed after inoculation, 100 = 100% disease control, 0 = no disease control", "excerpt": "as §1", "units": {"Test G rating (disease control)": "%"}, "values": [{"compound": "Cc1nn(C)c(Nc2ccc(C#N)cc2Cl)c1-c1ccc(F)cc1Cl", "note": "[compound 44]", "Test G rating (disease control)": 8}, {"compound": "Cc1nn(C)c(Nc2ccc(F)cc2F)c1-c1c(F)cccc1F", "note": "[compound 49]", "Test G rating (disease control)": 0}, {"compound": "Cc1nn(C)c(Nc2ccc(Cl)cc2Cl)c1-c1c(F)cccc1F", "note": "[compound 50]", "Test G rating (disease control)": 0}, {"compound": "COc1ccc(Nc2c(-c3c(F)cccc3F)c(C)nn2C)c(F)c1", "note": "[compound 51]", "Test G rating (disease control)": 0}, {"compound": "Cc1nn(C)c(Nc2ccc(F)cc2F)c1-c1ccccc1F", "note": "[compound 52]", "Test G rating (disease control)": 0}, {"compound": "Cc1nn(C)c(Nc2c(F)cc(F)cc2F)c1-c1ccccc1F", "note": "[compound 53]", "Test G rating (disease control)": 0}, {"compound": "COc1cc(F)c(Nc2c(-c3ccccc3F)c(C)nn2C)c(F)c1", "note": "[compound 54]", "Test G rating (disease control)": 27}, {"compound": "COc1cc(F)c(Nc2c(-c3c(F)cccc3Cl)c(C)nn2C)c(F)c1", "note": "[compound 55]", "Test G rating (disease control)": 94}, {"compound": "Cc1nn(C)c(Nc2c(F)cc(F)cc2F)c1-c1c(F)cccc1Cl", "note": "[compound 56]", "Test G rating (disease control)": 0}, {"compound": "Cc1nn(C)c(Nc2c(F)cc(C#N)cc2F)c1-c1c(F)cccc1Cl", "note": "[compound 57]", "Test G rating (disease control)": 0}]}, {"system": "Puccinia recondita f. sp. tritici", "assay": "Test H: wheat leaf rust, preventive spray on wheat seedlings, visual disease rating", "details": "wheat leaf rust, sprayed the day before inoculation; 100 = 100% disease control, 0 = no disease control", "units": {"Test H rating (disease control)": "%"}, "values": [{"compound": "Cc1nn(C)c(Nc2ccc(C#N)cc2Cl)c1-c1ccc(F)cc1Cl", "note": "[compound 44]", "Test H rating (disease control)": 98}, {"compound": "Cc1nn(C)c(Nc2ccc(F)cc2F)c1-c1c(F)cccc1F", "note": "[compound 49]", "Test H rating (disease control)": 83}, {"compound": "Cc1nn(C)c(Nc2ccc(Cl)cc2Cl)c1-c1c(F)cccc1F", "note": "[compound 50]", "Test H rating (disease control)": 93}, {"compound": "COc1ccc(Nc2c(-c3c(F)cccc3F)c(C)nn2C)c(F)c1", "note": "[compound 51]", "Test H rating (disease control)": 68}, {"compound": "Cc1nn(C)c(Nc2ccc(F)cc2F)c1-c1ccccc1F", "note": "[compound 52]", "Test H rating (disease control)": 60}, {"compound": "Cc1nn(C)c(Nc2c(F)cc(F)cc2F)c1-c1ccccc1F", "note": "[compound 53]", "Test H rating (disease control)": 95}, {"compound": "COc1cc(F)c(Nc2c(-c3ccccc3F)c(C)nn2C)c(F)c1", "note": "[compound 54]", "Test H rating (disease control)": 94}, {"compound": "COc1cc(F)c(Nc2c(-c3c(F)cccc3Cl)c(C)nn2C)c(F)c1", "note": "[compound 55]", "Test H rating (disease control)": 100}, {"compound": "Cc1nn(C)c(Nc2c(F)cc(F)cc2F)c1-c1c(F)cccc1Cl", "note": "[compound 56]", "Test H rating (disease control)": 97}, {"compound": "Cc1nn(C)c(Nc2c(F)cc(C#N)cc2F)c1-c1c(F)cccc1Cl", "note": "[compound 57]", "Test H rating (disease control)": 99}]}, {"system": "Botrytis cinerea", "assay": "Test A: tomato Botrytis, preventive spray on tomato seedlings, visual disease rating", "details": "tomato Botrytis; 100 = 100% disease control, 0 = no disease control relative to the controls", "units": {"Test A rating (disease control)": "%"}, "values": [{"compound": "Cc1nn(C)c(Nc2ccc(C#N)cc2Cl)c1-c1ccc(F)cc1Cl", "note": "[compound 44]", "Test A rating (disease control)": 99}, {"compound": "Cc1nn(C)c(Nc2ccc(F)cc2F)c1-c1c(F)cccc1F", "note": "[compound 49]", "Test A rating (disease control)": 100}, {"compound": "Cc1nn(C)c(Nc2ccc(Cl)cc2Cl)c1-c1c(F)cccc1F", "note": "[compound 50]", "Test A rating (disease control)": 100}, {"compound": "COc1ccc(Nc2c(-c3c(F)cccc3F)c(C)nn2C)c(F)c1", "note": "[compound 51]", "Test A rating (disease control)": 100}, {"compound": "Cc1nn(C)c(Nc2ccc(F)cc2F)c1-c1ccccc1F", "note": "[compound 52]", "Test A rating (disease control)": 94}, {"compound": "Cc1nn(C)c(Nc2c(F)cc(F)cc2F)c1-c1ccccc1F", "note": "[compound 53]", "Test A rating (disease control)": 97}, {"compound": "COc1cc(F)c(Nc2c(-c3ccccc3F)c(C)nn2C)c(F)c1", "note": "[compound 54]", "Test A rating (disease control)": 97}, {"compound": "COc1cc(F)c(Nc2c(-c3c(F)cccc3Cl)c(C)nn2C)c(F)c1", "note": "[compound 55]", "Test A rating (disease control)": 99}, {"compound": "Cc1nn(C)c(Nc2c(F)cc(F)cc2F)c1-c1c(F)cccc1Cl", "note": "[compound 56]", "Test A rating (disease control)": 98}, {"compound": "Cc1nn(C)c(Nc2c(F)cc(C#N)cc2F)c1-c1c(F)cccc1Cl", "note": "[compound 57]", "Test A rating (disease control)": 97}]}, {"system": "Alternaria solani", "assay": "Test B: tomato early blight, preventive spray on tomato seedlings, visual disease rating", "details": "tomato early blight; 100 = 100% disease control, 0 = no disease control relative to the controls", "units": {"Test B rating (disease control)": "%"}, "values": [{"compound": "Cc1nn(C)c(Nc2ccc(C#N)cc2Cl)c1-c1ccc(F)cc1Cl", "note": "[compound 44]", "Test B rating (disease control)": 0}, {"compound": "Cc1nn(C)c(Nc2ccc(F)cc2F)c1-c1c(F)cccc1F", "note": "[compound 49]", "Test B rating (disease control)": 100}, {"compound": "Cc1nn(C)c(Nc2ccc(Cl)cc2Cl)c1-c1c(F)cccc1F", "note": "[compound 50]", "Test B rating (disease control)": 99}, {"compound": "COc1ccc(Nc2c(-c3c(F)cccc3F)c(C)nn2C)c(F)c1", "note": "[compound 51]", "Test B rating (disease control)": 99}, {"compound": "Cc1nn(C)c(Nc2ccc(F)cc2F)c1-c1ccccc1F", "note": "[compound 52]", "Test B rating (disease control)": 44}, {"compound": "Cc1nn(C)c(Nc2c(F)cc(F)cc2F)c1-c1ccccc1F", "note": "[compound 53]", "Test B rating (disease control)": 99}, {"compound": "COc1cc(F)c(Nc2c(-c3ccccc3F)c(C)nn2C)c(F)c1", "note": "[compound 54]", "Test B rating (disease control)": 100}, {"compound": "COc1cc(F)c(Nc2c(-c3c(F)cccc3Cl)c(C)nn2C)c(F)c1", "note": "[compound 55]", "Test B rating (disease control)": 99}, {"compound": "Cc1nn(C)c(Nc2c(F)cc(F)cc2F)c1-c1c(F)cccc1Cl", "note": "[compound 56]", "Test B rating (disease control)": 100}, {"compound": "Cc1nn(C)c(Nc2c(F)cc(C#N)cc2F)c1-c1c(F)cccc1Cl", "note": "[compound 57]", "Test B rating (disease control)": 100}]}, {"system": "Blumeria graminis f. sp. tritici", "assay": "Test I: wheat powdery mildew, preventive spray on wheat seedlings, visual disease rating", "details": "wheat powdery mildew; 100 = 100% disease control, 0 = no disease control relative to the controls", "units": {"Test I rating (disease control)": "%"}, "values": [{"compound": "Cc1nn(C)c(Nc2ccc(C#N)cc2Cl)c1-c1ccc(F)cc1Cl", "note": "[compound 44]", "Test I rating (disease control)": 94}, {"compound": "Cc1nn(C)c(Nc2ccc(F)cc2F)c1-c1c(F)cccc1F", "note": "[compound 49]", "Test I rating (disease control)": 100}, {"compound": "Cc1nn(C)c(Nc2ccc(Cl)cc2Cl)c1-c1c(F)cccc1F", "note": "[compound 50]", "Test I rating (disease control)": 100}, {"compound": "COc1ccc(Nc2c(-c3c(F)cccc3F)c(C)nn2C)c(F)c1", "note": "[compound 51]", "Test I rating (disease control)": 100}, {"compound": "Cc1nn(C)c(Nc2ccc(F)cc2F)c1-c1ccccc1F", "note": "[compound 52]", "Test I rating (disease control)": 98}, {"compound": "Cc1nn(C)c(Nc2c(F)cc(F)cc2F)c1-c1ccccc1F", "note": "[compound 53]", "Test I rating (disease control)": 99}, {"compound": "COc1cc(F)c(Nc2c(-c3ccccc3F)c(C)nn2C)c(F)c1", "note": "[compound 54]", "Test I rating (disease control)": 99}, {"compound": "COc1cc(F)c(Nc2c(-c3c(F)cccc3Cl)c(C)nn2C)c(F)c1", "note": "[compound 55]", "Test I rating (disease control)": 99}, {"compound": "Cc1nn(C)c(Nc2c(F)cc(F)cc2F)c1-c1c(F)cccc1Cl", "note": "[compound 56]", "Test I rating (disease control)": 99}, {"compound": "Cc1nn(C)c(Nc2c(F)cc(C#N)cc2F)c1-c1c(F)cccc1Cl", "note": "[compound 57]", "Test I rating (disease control)": 99}]}, {"system": "Septoria nodorum", "assay": "Test E: Septoria glume blotch, preventive spray on wheat seedlings, visual disease rating", "details": "Septoria glume blotch; 100 = 100% disease control, 0 = no disease control relative to the controls", "units": {"Test E rating (disease control)": "%"}, "values": [{"compound": "Cc1nn(C)c(Nc2ccc(C#N)cc2Cl)c1-c1ccc(F)cc1Cl", "note": "[compound 44]", "Test E rating (disease control)": 0}, {"compound": "Cc1nn(C)c(Nc2ccc(F)cc2F)c1-c1c(F)cccc1F", "note": "[compound 49]", "Test E rating (disease control)": 80}, {"compound": "Cc1nn(C)c(Nc2ccc(Cl)cc2Cl)c1-c1c(F)cccc1F", "note": "[compound 50]", "Test E rating (disease control)": 73}, {"compound": "COc1ccc(Nc2c(-c3c(F)cccc3F)c(C)nn2C)c(F)c1", "note": "[compound 51]", "Test E rating (disease control)": 0}, {"compound": "Cc1nn(C)c(Nc2ccc(F)cc2F)c1-c1ccccc1F", "note": "[compound 52]", "Test E rating (disease control)": 0}, {"compound": "Cc1nn(C)c(Nc2c(F)cc(F)cc2F)c1-c1ccccc1F", "note": "[compound 53]", "Test E rating (disease control)": 87}, {"compound": "COc1cc(F)c(Nc2c(-c3ccccc3F)c(C)nn2C)c(F)c1", "note": "[compound 54]", "Test E rating (disease control)": 67}, {"compound": "COc1cc(F)c(Nc2c(-c3c(F)cccc3Cl)c(C)nn2C)c(F)c1", "note": "[compound 55]", "Test E rating (disease control)": 80}, {"compound": "Cc1nn(C)c(Nc2c(F)cc(F)cc2F)c1-c1c(F)cccc1Cl", "note": "[compound 56]", "Test E rating (disease control)": 0}, {"compound": "Cc1nn(C)c(Nc2c(F)cc(C#N)cc2F)c1-c1c(F)cccc1Cl", "note": "[compound 57]", "Test E rating (disease control)": 73}]}]}
